Assay [1] deals with T1, Replicase polyprotein 1ab (Severe acute respiratory syndrome coronavirus 2, UniProt P0DTD1). Kind of assay: Binding affinity to wild type SARS-COV2 main protease expressed in Escherichia coli BL21 (DE3) assessed as dissociation constant by small angle X-ray scattering analysis.
Assay [2] has as its target T1, Replicase polyprotein 1ab. Kind of assay: Binding affinity to SARS-COV2 main protease assessed as dissociation constant by analytical ultracentrifugation analysis.
Assay [3] addresses T1, Replicase polyprotein 1ab. Kind of assay: Binding affinity to SARS-COV2 main protease assessed as dissociation constant by mass spectrometry analysis.
For assay [4], the target named is Replicase polyprotein 1ab (Severe acute respiratory syndrome coronavirus 2) (UniProt P0DTD1). Kind of assay: Inhibition of wild type recombinant SARS-COV2 main protease expressed in Escherichia coli BL21 (DE3) using DABCYL-KTSAVLQSGFRKME-EDANS-NH2 as fluorogenic substrate at 1.5 to 50 uM preincubated for 10 mins followed by substrate addition by FRET assay. Particulars: dose 1.5-50 µM.

A further assay has as its system SARS-CoV-2. Kind of assay: Antiviral activity against SARS-COV2 infected in African green monkey Vero E6 cells assessed as reduction of viral titer by immunofocus assay. It is filed as functional, organism-based. The following applies: Severe acute respiratory syndrome coronavirus 2, Vero C1008.

Calls of active or inactive are those of the source. The calls are words filed in the database; no cut-off is given here.

Drawing on ChEMBL document CHEMBL5380815, “Probing Ligand Binding Sites on Large Proteins by Nuclear Magnetic Resonance Spectroscopy of Genetically Encoded Non-Canonical Amino Acids” (J Med Chem, 2023), this text covers Kd, inhibition and EC50 for 2 compounds.

`CC(=O)[C@@H]1CSCC(=O)N[C@H](Cc2ccc(O)cc2)C(=O)N[C@@H](CC(C)C)C(=O)N[C@@H](CCC(N)=O)C(=O)N[C@@H](Cc2ccc(O)cc2)C(=O)N[C@@H](C)C(=O)N[C@@H](C(C)C)C(=O)N[C@@H](CC(C)C)C(=O)N[C@@H](CCCNC(=N)N)C(=O)N[C@@H](Cc2c[nH]cn2)C(=O)N[C@@H](CCCCN)C(=O)N[C@@H](CCCNC(=N)N)C(=O)N[C@@H](CCCNC(=N)N)C(=O)N[C@@H](CCC(=O)O)C(=O)C1`: the Kd – broadly, the free concentration of one partner at which half of the binding sites on the other are occupied at equilibrium, for simple one-to-one binding – in assay [1] was 7000 nM; in assay [2] it was 2500 nM; in assay [3], 140 nM.

In the case of `CCOc1cc2ncc(C#N)c(Nc3ccc(F)c(Cl)c3)c2cc1NC(=O)/C=C/CN(C)C` [PELITINIB], in assay [4], the inhibition result was “inactive”. For the same compound, the concentration giving a half-maximal response (EC50) (commonly the concentration at which the effect is half-maximal) in the assay with SARS-CoV-2 turned out to be 1250 nM.
